Reference: US20250170239A1, “CELLULAR REPROGRAMMING BY TARGETING THE GOLGI APPARATUS” (MUSC Foundation for Research Development, priority 2023, published 2025)

Key:
[1] = test system: Cbs-KO T cells; experiment: Cbs-KO T cells activated with anti-CD3/anti-CD28 with or without H2S
[2] = test system: human CD19 CAR-T cells; details: 3 days IL2 +/− 0.5 mM GYY4137
Description: Quantification of oxygen consumption rate (OCR), spare respiratory capacity (SRC), maximal respiration, and basal respiration (n=10 experimental replicates representative of 3 separate experiments). […] Shown is the quantification of mean oxygen consumption rate (OCR), spare respiratory capacity (SRC), maximal respiration, and basal respiration. Data shown represent the mean±SEM and were analyzed by two-sided Student's t-test or one-way ANOVA. ns, p-value >0.05; p-value *≤0.05; **≤0.01; ***≤0.001; ****≤0.0001.
Oxygen consumption rate (OCR) and extracellular acidification rate (ECAR) were determined using the Seahorse Xfe96 analyzer (Agilent Technologies, Santa Clara, CA). Briefly, T cells (0.5×10^6/well) were plated on a Cell-Tak coated Seahorse culture plate for 30 min. OCR, a measure of OXPHOS, was analyzed under basal condition, or in response to 1.0 μM oligomycin, 1.0 μM fluoro-carbonyl cyanide phenylhydrazone (FCCP) and 2 μM rotenone, plus 100 nM antimycin A. ECAR, a measure of glycolysis, was measured under basal conditions and in response to glucose (5.5 mM), Oligomycin (1.0 μM), and 2-deoxyglucose (2-DG) (100 mM). All reagents were purchased from Sigma-Aldrich, St. Louis, MO.

[3] = test system: Pmel CD8+ T cells; experiment: Re-stimulation with gp100 and FACS cytokine analysis; assay type: cell-based, mouse; details: 0.5 mM GYY4137 3 days, re-stimulated with gp100
From the text: The impact of H2S on T cell effector function was next determined. Pmel CD8+ T cells were activated and expanded with standard culture conditions or with the addition of the H2S donor and subsequently re-stimulated with gp100 cognate antigen (FIG. 14E). […] Given the importance of protein translation in maintaining a robust anti-tumor response and the repression of T cell translation that occurs in the TME (Riesenberg B. P., et al., 2022, bioRxiv, 2022.01.31.478547; Marchingo J. M., et al., 2022, Cell Mol Immunol., 19(3):303-315), it was determined if H2S influences protein translation.

[4] = test system: Foxo1; experiment: Nuclear vs cytoplasmic Foxo1 by western blot; assay type: cell-based, mouse; details: GYY4137 0.5 mM, 3 days
Description: (FIG. 18C) NAD+ and nicotinamide quantification from metabolomics dataset.
For evaluation of the protein level, cell pellets were washed in PBS and lysed in RIPA buffer (Thermo Fisher Scientific, Waltham, MA), including protease/phosphatase inhibitors, vortexed, and incubated for 20 minutes on ice. Cell lysates were then centrifuged at 12,000 rpm for 15 min at 4° C. The supernatants were collected, and proteins were quantified with a BCA protein assay kit (Thermo Fisher Scientific, Waltham, MA). For immunoblot analyses, 20 μg of protein lysates per sample were denatured in 4× Loading dye and boiled using a heating block at 95 degrees for 10 minutes before loading to SDS gradient gels 4%-20% (Bio-Rad Criterion, 1h runs). Gels were semi-dry transferred onto PVDF, and the membranes were blocked with 3% milk in 0.1% TBST. The membraneNext, the membrane was probed with the following primary antibodies: anti-Prdx4 (Proteintech, 10703-1-AP), anti-eIF2a (Cell Signaling Technology, #9722), or anti-β-Actin (Signaling Technology, #4967L) overnight at 4° C. followed by one-hour incubation with HRP-conjugated secondary antibody (Cell Signaling Technology, Danvers, MA) and using a Clarity Western ECL Substrate (Bio-Rad, Hercules, CA).

[5] = test system: Pmel CD8+ T cells; details: 3 days gp100 and IL2 +/− 0.5 mM GYY4137
Description: Different metabolites' intracellular levels were determined by performing comprehensive hydrophilic metabolites analysis using LC/MS platform (Metabolomics Core Facility, Northwestern University). Data were then analyzed using MetaboAnalyst software. Samples were loaded equivalently across the platform and normalized to Bradford values before statistical analysis.

[6] = test system: Pmel T cells; experiment: Golgi stress (monensin, H2O2, thapsigargin) in Pmel T cells: GM130, ROS, Golgi dispersion; assay type: cell-based, mouse; design: cell death / mitochondrial ROS / monensin-induced cell death and mitochondrial ROS accumulation / ER stress (p-PERK): dose or concentration left out as unconfirmed
Description: (FIG. 21A) Levels of intracellular glutathione assessed using FACS by employing ThiolTracker Violet dye in control CD19 CAR-T cells or CAR-T cells overexpressing Cbs (CbstdCD19-CAR-T) (n=3). (FIG. 21B) 12 hour Thapsigargin (700 nM) treatment was used to induce ER stress in WT T cells, Cbs-KO T cells, and Cbs-KO T cells+H2S. Levels of phosphorylated PERK were assessed by FACS (n=3). (FIG. 21C) Pmel T cells were treated with either Thapsigargin (700 nM) or Monensin (1 mM) for 12 hours, followed by staining for phosphorylated PERK (p-PERK) and GM130 to assess ER stress and Golgi stress, respectively (n=4). (FIG. 21D) Activated Pmel T cells were treated for 12 hours with either vehicle control or 1 mM Monensin (“+Golgi stress”) before being stained for giantin to assess Golgi dispersion. […] (FIG. 21E) Representative confocal microscopy images of mitochondria (Tom20) and Golgi (giantin) in human PBMCs treated with vehicle control or 0.5 mM GYY4137.
T cells were stained with conjugated for surface markers as described in the figure legends followed by fixation and permeabilization with BD Cytofix/Cytoperm Kit (BD Biosciences, 554722). The Golgi was labeled using anti-Giantin antibody (Abcam, ab80864) as the primary antibody followed by secondary antibody staining with anti-Rabbit IgG conjugated to Alexa Fluor 488 (ab150077). The cells were then imaged using ImageStreamX mark II imaging flow-cytometer and analyzed using IDEAS 6.2. Spectral overlap was compensated for using single-stain controls. Image analysis for Golgi area was performed using the protocol established by Eisenberg-Lerner et al.44 First, cells were gated on single cells using the area and aspect ratio features, and then gated on focused cells using the Gradient RMS feature. Golgi area was calculated using the anti-Giantin fluorescence signaling, using on the Threshold_50 mask that includes the 50% highest intensity pixels of the Golgi staining, with a mask defined as Area Threshold 50 was considered as the Golgi area to compare between the relevant conditions.

`C1COCCN1.COc1ccc(P(=S)(S)N2CCOCC2)cc1` (centres unmarked) [GYY4137] was tested, and the “expression of Foxo1 (intranuclear staining)” value ([1]; Cbs-KO T cells +/− GYY4137) was “restored”, the “ER stress (pPERK)” value ([1]; Cbs-KO T cells, 12 hour Thapsigargin (700 nM)) was “reduced” and the Tcm fraction ([1]; H2S added to Cbs-KO T cells) was “restoration of the Tcm fraction”. The SRC [2] was “significant increase”, the maximal respiration [2] was “significant increase” and the “Granzyme B and CD107 expression” value [3] was “increased levels of cytolytic molecule Granzyme B and CD107 expression”. For the same molecule, the “secretion of effector cytokines TNF-α and IFN-γ” value [3] was “enhanced secretion of effector cytokines TNF-α, and IFN-γ”, the “nuclear localization of Foxo1” value [4] was “increased nuclear localization of Foxo1” and the “levels of NAD+” value [5] was “increased levels of NAD+”. For the same molecule, the levels of nicotinamide [5] was “decreased levels of nicotinamide”, the metabolite profile [5] was “distinct profile of metabolites” and the “monensin-induced ROS (DCFDA)” value ([6]; 1 mM monensin with H2S treatment) was “mitigated”. The “H2O2-mediated changes in Golgi stress (GM130 levels)” value ([6]; 50 mM H2O2 (6-hours)) was “mitigated” and the “monensin-induced cell death and mitochondrial ROS accumulation” value ([6]; monensin in presence of H2S) was “partially mitigated”.
